Data taken from article PMC9395488, “First-in-human study of IM156, a novel potent biguanide oxidative phosphorylation (OXPHOS) inhibitor, in patients with advanced solid tumors” (Investigational New Drugs, 2022).
Where two headings read alike, the source gives them in different places.

Columns and labels:
OXPHOS = OXPHOS inhibition in whole blood ex vivo; assay type: cell-based; details: at ~ 6 μM IM156
Description: The maximum plasma exposure achieved in this study was ~ 6 μM in patients who received IM156 at daily doses of 800 mg. […] As such, measurements of target inhibition were not informative using PBMCs-based assays.

[1] = system: purified complex I membrane from bovine heart; set-up: method as in ImmunoMet, 2018; details: ref ImmunoMet, 2018, read-out: mitochondrial OXPHOS inhibition IC50; cited from earlier work
protein complex 1 = system: protein complex 1; set-up: method as in ImmunoMet, 2018; details: study protocol background; ref ImmunoMet, 2018; cited from earlier work
[2] = system: GC lines including MKN-74; set-up: method as in ImmunoMet, 2018; details: Eleven GC lines including MKN-74; ref ImmunoMet, 2018; cited from earlier work
Glioblastoma cells = system: Glioblastoma cells; set-up: method as in ImmunoMet, 2018; details: 15 µM IM156, 500 µM temozolomide, ref ImmunoMet, 2018; cited from earlier work
tumor cells = system: tumor cells; set-up: method as in Immunomet – Data on File; details: at equal concentrations, ref Immunomet – Data on File, cited from earlier work
[3] = beagle dogs, ref ImmunoMet, 2018, cited from earlier work
rodent bone marrow = details: ref ImmunoMet, 2018; cited from earlier work

Question: What does the source list for NC(=Nc1ccc(OC(F)(F)F)cc1)N=C(N)N1CCCC1 [IM156]?
Answer: inhibition of OXPHOS in whole blood ex vivo (OXPHOS): very little inhibition; IC50 [1]: 2000 nM; potency as protein complex 1 inhibitor relative to metformin (protein complex 1): ~ 100 times; sensitivity of GC lines to single agent [2]: significant sensitivity; neurosphere size (Glioblastoma cells): decreased; reduction of cellular ATP production versus phenformin (tumor cells; without increase in ECAR): more potent; decrease of oxygen consumption rate (OCR) of tumor cells compared to phenformin and metformin (tumor cells): more potent; accumulation over 27 days ([3]; 20 mg/kg/dose QOD): no apparent accumulation; accumulation over 27 days ([3]; 40 and 80 mg/kg/dose QOD): accumulation; genotoxicity in in vivo micronucleus test (rodent bone marrow): not genotoxic
